In brackets after ≈: the same amount, converted by molar mass.
Columns and labels:
Candida albicans [1] = experiment: Antifungal activity against Candida albicans incubated for 24 hrs by TTC staining method; format: functional
[2] = test system: Botryosphaeria berengeriana; experiment: Antifungal activity against Physalospora pyricola assessed as inhibition rate of fungal growth at 50 mg/kg relative to control; format: functional
Bipolaris maydis [3] = experiment: Antifungal activity against Bipolaris maydis assessed as inhibition rate of fungal growth at 50 mg/kg relative to control; format: functional
[4] = test system: Botryosphaeria berengeriana; experiment: Antifungal activity against Physalospora pyricola relative to control; format: functional
Bipolaris oryzae [5] = experiment: Antifungal activity against Bipolaris oryzae; format: functional, organism-based
Alternaria solani [6] = experiment: Antifungal activity against Alternaria solani assessed as inhibition rate of fungal growth at 50 mg/kg relative to control; format: functional
Bipolaris maydis [7] = experiment: Antifungal activity against Bipolaris maydis relative to control; format: functional; design: concentration or dose not given beside the values
Bipolaris oryzae [8] = experiment: Antifungal activity against Bipolaris oryzae incubated for 7 days; format: functional; conditions: 168 h, time 7 day
Gaeumannomyces graminis = experiment: Antifungal activity against Gaeumannomyces graminis; format: functional, organism-based
Botrytis cinerea = experiment: Antifungal activity against Botrytis cinerea; format: functional, organism-based
Alternaria solani [9] = experiment: Antifungal activity against Alternaria solani relative to control; format: functional; design: concentration or dose not given beside the values
Candida albicans [10] = experiment: Antifungal activity against Candida albicans incubated for 24 to 48 hrs by 96-well plate method; format: functional; conditions: time 24-48 hrs
[11] = test system: Cryptococcus deuterogattii; experiment: Antifungal activity against Cryptococcus gattii VGII incubated for 24 to 48 hrs by 96-well plate method; format: functional, Cryptococcus gattii species complex; conditions: time 24-48 hrs
Cryptococcus neoformans = experiment: Antifungal activity against Cryptococcus neoformans incubated for 24 to 48 hrs by 96-well plate method; format: functional; conditions: time 24-48 hrs
Fusarium solani [12] = experiment: Antifungal activity against Fusarium solani incubated for 72 hrs; format: functional, organism-based; conditions: time 72 hrs
Fusarium solani [13] = experiment: Antifungal activity against Fusarium solani relative to control; format: functional
Mucor hiemalis = experiment: Antifungal activity against Mucor hiemalis by 96-well plate method; format: functional
Saccharomyces cerevisiae = experiment: Antifungal activity against Saccharomyces cerevisiae assessed as diameter of zone inhibition at 100 ug per disk incubated for 24 hrs; format: functional; conditions: read-out: DIZ
[14] = test system: Colletotrichum gloeosporioides; experiment: Antifungal activity against Colletotrichum gloeosporioides assessed as diameter of zone inhibition at 100 ug per disk incubated for 24 hrs; format: functional; conditions: read-out: DIZ
Phyllosticta citricarpa = experiment: Antifungal activity Phyllosticta citricarpa against assessed as diameter of zone inhibition at 100 ug per disk incubated for 24 hrs; format: functional; conditions: read-out: DIZ

O=[N+]([O-])c1cccc(-c2nc(-c3n[nH]c(=S)o3)cc3c2[nH]c2ccccc23)c1
MIC (Candida albicans [1]): 3.1 µg/mL (≈ 7.96 µM)

CC1NC(C(=O)N/N=C/c2ccc(Cl)c(Cl)c2)Cc2c1[nH]c1ccccc21 (configuration not stated)
inhibition in vivo at 50 mg/kg [2]: 97% | inhibition in vivo at 50 mg/kg (Bipolaris maydis [3]): 80% | Activity [4]: 97%

CCCCCN1CCc2c([nH]c3ccccc23)C1
EC50 (Bipolaris oryzae [5]): 110 µg/mL (≈ 454 µM)

Cc1nc(/C=C/C(=O)O)cc2c1[nH]c1ccccc12
inhibition in vivo at 50 mg/kg (Bipolaris maydis [3]): 9.8% | inhibition in vivo at 50 mg/kg (Alternaria solani [6]): 10.5% | Activity (Bipolaris maydis [7]): 9.8%

CCCCCCCCN1CCc2c([nH]c3ccccc23)C1
MIC (Bipolaris oryzae [8]): 28 µg/mL (≈ 98.4 µM)

COC(=O)c1cc2c([nH]c3ccccc32)c(C(N)=O)n1
EC50 (Gaeumannomyces graminis): 0.45 µM | EC50 (Botrytis cinerea): 14.2 µM

Cc1nccc2c1[nH]c1c([N+](=O)[O-])cccc12
Activity (Alternaria solani [9]): 88.9% | Activity (Bipolaris maydis [7]): 94.7% | MIC (Candida albicans [10]): 40 µg/mL (≈ 176 µM) | MIC [11]: 40 µg/mL (≈ 176 µM) | MIC (Cryptococcus neoformans): 40 µg/mL (≈ 176 µM)

CC(=O)Oc1ccc2c(c1)c1ccnc3ccc(=O)n2c31
inhibition (INH) (Fusarium solani [12]): 86% | Activity (Fusarium solani [13]): 86%

CC(C)CCCC(=O)c1nc(C(=O)O)cc2c1[nH]c1ccccc12
MIC (Mucor hiemalis): 8.3 µg/mL (≈ 25.6 µM)

C=Cc1nc(C(=O)O)cc2c1[nH]c1ccccc12
zone of inhibition at 100 µg/disc (Saccharomyces cerevisiae): 9 mm | zone of inhibition at 100 µg/disc [14]: 16 mm | zone of inhibition at 100 µg/disc (Phyllosticta citricarpa): 17 mm

Reference: ChEMBL document CHEMBL5136985, “Natural and synthetic β-carboline as a privileged antifungal scaﬀolds” (Eur J Med Chem, 2022)
